Measurements reported in patent publication US20030176479A1, “Use of selective EP4 receptor agonists for the treatment of liver failure, loss of patency of the ductus arteriosus, glaucoma or ocular hypertension” (priority 2002, published 2003).

Experiments:
Conditions in all cases: displacement of 3H-prostaglandin E2, 293S membranes, 1 hour at 25° C.
rat EP4 receptor = molecular target: T1, rat EP4 receptor (Rattus norvegicus, UniProt P43114); experiment: Rat EP4 receptor binding assay (3H-PGE2 displacement, 293S cell membranes)
T1 construct: expressed in transfected cells
Text: (§1) The compounds of Formula I or II, which are useful in the methods of the present invention, bind to the prostaglandin E2 type 4 receptor (EP4 receptor). The full-length coding sequence for the human EP1 receptor is made in accordance with the procedure in Funk et al., Journal of Biological Chemistry, 1993, 268, 26767-26772. The full-length rat EP2 receptor is made in accordance with the procedure in Nemoto et al., Prostaglandins and other Lipid Mediators, 1997, 54, 713-725. The full-length coding sequence for the human EP3 receptor is made in accordance with the procedure in Regan et al., British Journal of Pharmacology, 1994, 112, 377-385. The full-length coding sequence for the rat EP4 receptor is made in accordance with the procedure in Sando et al., Biochem. Biophys. Res. Comm. 1994, 200,1329-1333. These full-length receptors are used to prepare 293S cells expressing the human EP1, rat EP2, human EP3 or rat EP4 receptors.
(§2) Human EP1, Rat EP2, Human EP3, Rat EP4 Receptor Binding Assay
(§3) The full-length receptors described above are used to prepare 293S cells expressing the EP1, EP2, EP3, and EP4 receptors.
(§4) 293S cells expressing either the human EP1, rat EP2, human EP3 or rat EP4 prostaglandin E2 receptors are generated according to methods known to those skilled in the art. Typically, PCR (polymerase chain reaction) primers corresponding to the 5′ and 3′ ends of the published full length receptor are made according to the well known methods disclosed above and are used in an RT-PCR (reverse transcriptase-polymerase chain reaction) reaction using the total RNA from human kidney (for EP1), rat kidney (for EP2), human lung (for EP3), or rat kidney (EP4) as a source. PCR products are cloned by the TA overhang method into pCR2.1 (Invitrogen Corporation, Carlsbad, Calif.) and identity of the cloned receptor is confirmed by DNA sequencing. For expression of the rat EP2 receptor, the confirmed cDNA is subcloned into the mammalian expression vector PURpCl, a vector generated by subcloning the selectable marker for puromycin resistance into the mammalian expression vector pCl (Promega, Madison, Wis.)
(§5) 293S cells are transfected with either the cloned human EP1 or EP3 receptor in pcDNA3 by electroporation. Stable cell lines expressing either the human EP1 or EP3 receptor are established following selection of transfected cells with G418. 293S cells are transfected with the cloned rat EP2 receptor in PURpCi by lipid mediated transfection. Stable cell lines expressing the rat EP2 receptor are established following selection of transfected cells with puromycin. 293S cells are transfected with the cloned rat EP4 receptor in pcDNA3 by lipid mediated transfection. Stable cell lines expressing the rat EP4 receptor are established following selection of transfected cells with Geneticin® (Invitrogen, Carlsbad, Calif.).
(§6) Clonal cell lines expressing the maximal number of receptors are chosen following a whole cell ^3H-PGE2 binding assay using unlabeled PGE2 as a competitor.
(§7) Membrane Preparation: All operations are performed at 4° C. Transfected cells expressing either prostaglandin E2 type 1, type 2, type 3, or type 4 (EP1, EP2, EP3, or EP4, respectively) receptors are harvested and suspended to 2 million cells per ml in Buffer A [50 mM Tris-HCl (pH 7.4), 10 mM MgCI2, 1 mM EDTA, 1 mM Pefabloc peptide, (Boehringer Mannheim Corp., Indianapolis, Ind.), 10 uM Phosporamidon peptide, (Sigma, St. Louis, Mo.), 1 uM pepstatin A peptide, (Sigma, St. Louis, Mo.), 10 uM elastatinal peptide, (Sigma, St. Louis, Mo.), 100 uM antipain peptide, (Sigma, St. Louis, Mo.)]. The cells are lysed by sonification with a Branson Sonifier (Branson Ultrasonics Corporation, Danbury, Conn.) in 2 fifteen-second bursts. Unlysed cells and debris are removed by centrifugation at 100 ×g for 10 min. Membranes are then harvested by centrifugation at 45,000×g for 30 minutes. […]

rat EP2 receptor = molecular target: T2, rat EP2 receptor (Rattus norvegicus, UniProt Q62928); experiment: Rat EP2 receptor binding assay (3H-PGE2 displacement, 293S cell membranes)
T2 construct: The full-length rat EP2 receptor is made in accordance with the procedure in Nemoto et al; expressed in transfected cells
Text: as §1, §2, §3, §4, §5, §6, §7

human EP1 receptor = molecular target: T3, human EP1 receptor (Homo sapiens, UniProt P34995); experiment: Human EP1 receptor binding assay (3H-PGE2 displacement, 293S cell membranes)
T3 construct: expressed in transfected cells
T3 sequence (P34995 1-402): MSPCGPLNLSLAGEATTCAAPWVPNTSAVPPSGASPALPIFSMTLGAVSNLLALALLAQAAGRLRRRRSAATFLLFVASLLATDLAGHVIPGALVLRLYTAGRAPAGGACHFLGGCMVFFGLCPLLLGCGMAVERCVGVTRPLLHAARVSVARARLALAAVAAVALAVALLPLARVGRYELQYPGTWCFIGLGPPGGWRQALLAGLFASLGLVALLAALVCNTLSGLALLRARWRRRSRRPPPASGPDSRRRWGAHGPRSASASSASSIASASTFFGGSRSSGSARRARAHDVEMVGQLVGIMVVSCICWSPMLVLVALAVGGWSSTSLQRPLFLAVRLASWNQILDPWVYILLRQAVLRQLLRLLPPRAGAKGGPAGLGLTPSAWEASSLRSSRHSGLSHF
Text: as §1, §2, §3, §4, §5, §6, §7

T1 sequence (P43114 whole entry): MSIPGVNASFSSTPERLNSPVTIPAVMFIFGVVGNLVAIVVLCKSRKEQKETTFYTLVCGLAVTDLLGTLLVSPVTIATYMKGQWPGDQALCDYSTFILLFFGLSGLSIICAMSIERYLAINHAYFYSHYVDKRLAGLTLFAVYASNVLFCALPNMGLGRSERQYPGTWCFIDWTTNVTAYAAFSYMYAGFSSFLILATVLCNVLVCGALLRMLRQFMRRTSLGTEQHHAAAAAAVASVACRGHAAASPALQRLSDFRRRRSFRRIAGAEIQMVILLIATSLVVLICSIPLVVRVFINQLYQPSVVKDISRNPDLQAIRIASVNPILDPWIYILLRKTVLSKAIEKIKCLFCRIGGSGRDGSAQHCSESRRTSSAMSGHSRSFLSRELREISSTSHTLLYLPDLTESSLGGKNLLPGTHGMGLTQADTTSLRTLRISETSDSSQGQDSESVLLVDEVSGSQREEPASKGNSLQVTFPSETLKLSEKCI
T2 sequence (Q62928 whole entry): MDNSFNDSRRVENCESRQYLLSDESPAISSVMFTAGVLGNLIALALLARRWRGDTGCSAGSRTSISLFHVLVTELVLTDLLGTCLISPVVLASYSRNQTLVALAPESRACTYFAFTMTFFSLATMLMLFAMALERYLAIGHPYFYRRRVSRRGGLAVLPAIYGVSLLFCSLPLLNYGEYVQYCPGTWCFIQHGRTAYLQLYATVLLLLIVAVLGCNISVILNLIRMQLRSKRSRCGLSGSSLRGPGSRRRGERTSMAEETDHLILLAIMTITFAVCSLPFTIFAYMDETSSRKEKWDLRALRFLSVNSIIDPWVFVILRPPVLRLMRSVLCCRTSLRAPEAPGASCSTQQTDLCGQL

For `O=C(O)CCCCCCN1C(=O)CC[C@@H]1CC[C@@H](O)Cc1cccc(Cl)c1` [Example 1, 7-{2S-[4-(3-Chloro-phenyl)-3R-hydroxy-butyl]-5-oxo-pyrrolidin-1-yl}-heptanoic acid], the IC50 (rat EP4 receptor) was 0.022 µM, the IC50 (rat EP2 receptor) was greater than 3.2 µM and the IC50 (human EP1 receptor) was greater than 3.2 µM.
Work on `O=C(O)CCCCCCN1C(=O)CC[C@@H]1CC[C@@H](O)Cc1cccc(C(F)(F)F)c1` [Example 2, 7-{2S-[3R-hydroxy-4-(3-trifluoromethyl-phenyl)-butyl]-5-oxo-pyrrolidin-1-yl}-heptanoic acid] yielded an IC50 (rat EP4 receptor) of 0.021 µM, an IC50 (rat EP2 receptor) of 2.76 µM and an IC50 (human EP1 receptor) greater than 3.2 µM.
With `O=C1CC[C@H](CCC(O)Cc2cccc(Cl)c2)N1CCCCCCc1nn[nH]n1` (stereo partly drawn) [Example 3, 5S-[4-(3-Chloro-phenyl)-3-hydroxy-butyl]-1-[6-(2H-tetrazol-5-yl)-hexyl]-pyrrolidin-2-one] the IC50 (rat EP4 receptor) was 0.038 µM, the IC50 (rat EP2 receptor) was 2.37 µM and the IC50 (human EP1 receptor) was greater than 3.2 µM.
`O=C1CC[C@H](CC[C@@H](O)Cc2cccc(C(F)(F)F)c2)N1CCCCCCc1nn[nH]n1` [Example 4, 5S-[3R-Hydroxy-4-(3-trifluoromethyl-phenyl)-butyl]-1-[6-(2H-tetrazol-5-yl)-hexyl]-pyrrolidin-2-one] gave an IC50 (rat EP4 receptor) of 0.033 µM, an IC50 (rat EP2 receptor) greater than 3.2 µM and an IC50 (human EP1 receptor) greater than 3.2 µM.
`O=C1CCC(CCC(O)Cc2cccc(-c3ccccc3)c2)N1CCCCCCc1nn[nH]n1` (stereo not drawn) [Example 6, 5-(4-Biphenyl-3-yl-3-hydroxy-butyl)-1-[6-(2H-tetrazol-5-yl)-hexyl]-pyrrolidin-2-one] showed an IC50 (rat EP4 receptor) of 0.05 µM, an IC50 (rat EP2 receptor) of 3.05 µM and an IC50 (human EP1 receptor) greater than 3.2 µM.
`O=C(O)CCCCCCN1C(=O)CCC1CCC(O)Cc1ccccc1` (stereo not drawn) [Example 9, 7-(2-(3-hydroxy-4-phenyl-butyl)-5-oxo-pyrrolidin-1-yl)-heptanoic acid] was tested, and the IC50 (rat EP4 receptor) was 0.054 µM, the IC50 (rat EP2 receptor) was greater than 3.2 µM and the IC50 (human EP1 receptor) was greater than 3.2 µM.
